# Data: ChEMBL document CHEMBL1777722, “Design and synthesis of 5,6-fused heterocyclic amides as Raf kinase inhibitors” (Bioorg Med Chem Lett, 2011)
# The source made the active and inactive calls. The calls are words filed in the database; no cut-off is given here.
# Columns and labels:
# [1] = target: T1, Serine/threonine-protein kinase B-raf (Homo sapiens, UniProt P15056, V600E); assay: Inhibition of B-Raf V599E mutant assessed as phosphorylation of MEK1/2 by ELISA
# [2] = target: RAF proto-oncogene serine/threonine-protein kinase (Homo sapiens, UniProt P04049); assay: Inhibition of c-Raf assessed as phosphorylation of MEK1/2 by ELISA
# RAF proto-oncogene serine/threonine-protein kinase, sequence (P04049 whole entry): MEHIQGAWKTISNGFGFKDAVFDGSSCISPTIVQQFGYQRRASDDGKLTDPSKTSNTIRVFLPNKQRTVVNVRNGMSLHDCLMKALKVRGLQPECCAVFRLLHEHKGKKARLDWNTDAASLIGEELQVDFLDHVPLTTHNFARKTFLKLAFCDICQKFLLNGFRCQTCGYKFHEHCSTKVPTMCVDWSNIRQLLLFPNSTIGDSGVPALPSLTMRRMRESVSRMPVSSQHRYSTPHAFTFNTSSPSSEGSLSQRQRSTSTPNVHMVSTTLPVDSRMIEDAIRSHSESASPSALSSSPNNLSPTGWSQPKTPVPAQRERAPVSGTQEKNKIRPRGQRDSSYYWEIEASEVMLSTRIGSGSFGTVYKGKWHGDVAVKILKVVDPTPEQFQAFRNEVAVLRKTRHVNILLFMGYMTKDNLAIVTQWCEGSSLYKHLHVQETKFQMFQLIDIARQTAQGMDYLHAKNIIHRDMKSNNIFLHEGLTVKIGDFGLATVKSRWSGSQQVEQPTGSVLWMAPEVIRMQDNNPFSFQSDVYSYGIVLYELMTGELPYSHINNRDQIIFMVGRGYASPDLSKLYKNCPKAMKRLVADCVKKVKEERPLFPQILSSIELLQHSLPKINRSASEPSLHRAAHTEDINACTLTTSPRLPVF
# [3] = target: T1, Serine/threonine-protein kinase B-raf; assay: Inhibition of BRAF V600E mutant-mediated ERK phosphorylation in human SKMEL-28 cells by immunoblotting method; format: cell-based, MEL-28
# [4] = Half life in mouse at 20 mg/kg, po administered as single dose; format: ADME, organism-based; set-up: dose 20 mg/kg, route oral; details: in vivo
# [5] = system: Mus musculus; assay: Volume of distribution in mouse at 20 mg/kg, po administered as single dose; format: ADME, organism-based; set-up: dose 20 mg/kg, route oral; details: in vivo
# [6] = Clearance in mouse at 20 mg/kg, po administered as single dose; format: ADME, organism-based; set-up: dose 20 mg/kg, route oral; details: in vivo
# [7] = Oral bioavailability in mouse at 20 mg/kg administered as single dose; format: ADME, organism-based; details: in vivo
# [8] = target: Receptor-type tyrosine-protein kinase FLT3 (Homo sapiens) (UniProt P36888); assay: Inhibition of Flt3
# Receptor-type tyrosine-protein kinase FLT3 (Homo sapiens), sequence (P36888 whole entry): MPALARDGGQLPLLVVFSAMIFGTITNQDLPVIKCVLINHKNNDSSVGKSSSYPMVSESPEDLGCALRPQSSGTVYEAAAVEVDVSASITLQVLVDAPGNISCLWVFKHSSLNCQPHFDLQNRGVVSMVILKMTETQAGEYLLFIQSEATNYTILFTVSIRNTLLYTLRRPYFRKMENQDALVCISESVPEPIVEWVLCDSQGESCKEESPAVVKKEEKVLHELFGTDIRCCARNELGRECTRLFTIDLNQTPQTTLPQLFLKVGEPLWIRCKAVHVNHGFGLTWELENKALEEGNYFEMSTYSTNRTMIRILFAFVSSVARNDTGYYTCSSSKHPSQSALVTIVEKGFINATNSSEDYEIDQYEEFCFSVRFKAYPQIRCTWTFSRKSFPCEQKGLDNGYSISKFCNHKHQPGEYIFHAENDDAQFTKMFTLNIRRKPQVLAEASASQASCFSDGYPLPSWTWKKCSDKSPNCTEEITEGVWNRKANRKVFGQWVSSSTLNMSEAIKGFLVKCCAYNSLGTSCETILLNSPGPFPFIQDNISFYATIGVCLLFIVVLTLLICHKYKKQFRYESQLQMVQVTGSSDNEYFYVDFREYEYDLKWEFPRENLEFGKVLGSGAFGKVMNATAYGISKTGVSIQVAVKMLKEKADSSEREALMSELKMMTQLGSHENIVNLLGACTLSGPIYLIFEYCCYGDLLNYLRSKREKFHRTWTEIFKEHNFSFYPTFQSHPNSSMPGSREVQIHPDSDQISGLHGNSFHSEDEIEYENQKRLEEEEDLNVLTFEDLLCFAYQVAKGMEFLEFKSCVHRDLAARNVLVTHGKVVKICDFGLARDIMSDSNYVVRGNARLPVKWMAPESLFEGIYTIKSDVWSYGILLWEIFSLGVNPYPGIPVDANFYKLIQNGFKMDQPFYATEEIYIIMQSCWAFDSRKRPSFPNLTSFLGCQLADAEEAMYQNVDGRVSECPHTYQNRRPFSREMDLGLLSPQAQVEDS
# [9] = target: Macrophage colony-stimulating factor 1 receptor (Homo sapiens) (UniProt P07333); assay: Inhibition of CSFR1
# [10] = target: Tyrosine-protein kinase ABL1 (Homo sapiens) (UniProt P00519); assay: Inhibition of cABL
# [11] = target: Vascular endothelial growth factor receptor 2 (Homo sapiens) (UniProt P35968); assay: Inhibition of KDR
# Vascular endothelial growth factor receptor 2 (Homo sapiens), sequence (P35968 whole entry): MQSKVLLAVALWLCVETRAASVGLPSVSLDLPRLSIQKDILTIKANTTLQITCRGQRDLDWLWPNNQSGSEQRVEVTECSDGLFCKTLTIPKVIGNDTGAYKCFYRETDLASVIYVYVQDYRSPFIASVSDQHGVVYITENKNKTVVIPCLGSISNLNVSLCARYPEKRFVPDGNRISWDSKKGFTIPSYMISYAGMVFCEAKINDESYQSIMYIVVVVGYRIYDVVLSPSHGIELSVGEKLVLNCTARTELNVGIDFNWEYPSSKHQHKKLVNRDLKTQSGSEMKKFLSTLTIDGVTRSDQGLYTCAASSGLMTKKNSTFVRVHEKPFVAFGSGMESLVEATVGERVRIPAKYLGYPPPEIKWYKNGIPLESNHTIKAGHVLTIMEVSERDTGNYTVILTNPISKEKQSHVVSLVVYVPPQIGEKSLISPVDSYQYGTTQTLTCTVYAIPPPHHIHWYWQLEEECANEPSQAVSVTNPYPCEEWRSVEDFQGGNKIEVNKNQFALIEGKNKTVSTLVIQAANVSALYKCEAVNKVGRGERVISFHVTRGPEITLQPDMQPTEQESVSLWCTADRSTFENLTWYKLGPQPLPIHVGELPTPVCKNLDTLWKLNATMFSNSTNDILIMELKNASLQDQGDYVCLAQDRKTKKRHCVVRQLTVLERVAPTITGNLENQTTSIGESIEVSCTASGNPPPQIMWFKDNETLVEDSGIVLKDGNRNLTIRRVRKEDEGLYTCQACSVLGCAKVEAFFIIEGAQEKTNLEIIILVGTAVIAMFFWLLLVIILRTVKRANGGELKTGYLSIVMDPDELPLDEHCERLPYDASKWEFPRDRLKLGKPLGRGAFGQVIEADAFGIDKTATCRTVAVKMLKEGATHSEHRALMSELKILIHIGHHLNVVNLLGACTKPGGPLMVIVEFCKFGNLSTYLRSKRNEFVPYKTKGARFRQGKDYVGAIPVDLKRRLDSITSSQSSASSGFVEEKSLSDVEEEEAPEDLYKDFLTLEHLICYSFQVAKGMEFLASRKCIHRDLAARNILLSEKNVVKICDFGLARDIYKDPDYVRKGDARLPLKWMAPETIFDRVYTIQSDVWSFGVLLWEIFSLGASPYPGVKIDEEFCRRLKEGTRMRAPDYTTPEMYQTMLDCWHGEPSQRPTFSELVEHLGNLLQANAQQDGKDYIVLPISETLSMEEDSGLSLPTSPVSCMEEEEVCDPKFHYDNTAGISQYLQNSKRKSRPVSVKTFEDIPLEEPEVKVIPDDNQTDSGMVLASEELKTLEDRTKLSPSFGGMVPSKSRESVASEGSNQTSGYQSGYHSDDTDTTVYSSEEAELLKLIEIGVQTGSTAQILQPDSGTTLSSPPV
# [12] = target: Proto-oncogene tyrosine-protein kinase receptor Ret (Homo sapiens) (UniProt P07949); assay: Inhibition of Ret
# Proto-oncogene tyrosine-protein kinase receptor Ret (Homo sapiens), sequence (P07949 whole entry): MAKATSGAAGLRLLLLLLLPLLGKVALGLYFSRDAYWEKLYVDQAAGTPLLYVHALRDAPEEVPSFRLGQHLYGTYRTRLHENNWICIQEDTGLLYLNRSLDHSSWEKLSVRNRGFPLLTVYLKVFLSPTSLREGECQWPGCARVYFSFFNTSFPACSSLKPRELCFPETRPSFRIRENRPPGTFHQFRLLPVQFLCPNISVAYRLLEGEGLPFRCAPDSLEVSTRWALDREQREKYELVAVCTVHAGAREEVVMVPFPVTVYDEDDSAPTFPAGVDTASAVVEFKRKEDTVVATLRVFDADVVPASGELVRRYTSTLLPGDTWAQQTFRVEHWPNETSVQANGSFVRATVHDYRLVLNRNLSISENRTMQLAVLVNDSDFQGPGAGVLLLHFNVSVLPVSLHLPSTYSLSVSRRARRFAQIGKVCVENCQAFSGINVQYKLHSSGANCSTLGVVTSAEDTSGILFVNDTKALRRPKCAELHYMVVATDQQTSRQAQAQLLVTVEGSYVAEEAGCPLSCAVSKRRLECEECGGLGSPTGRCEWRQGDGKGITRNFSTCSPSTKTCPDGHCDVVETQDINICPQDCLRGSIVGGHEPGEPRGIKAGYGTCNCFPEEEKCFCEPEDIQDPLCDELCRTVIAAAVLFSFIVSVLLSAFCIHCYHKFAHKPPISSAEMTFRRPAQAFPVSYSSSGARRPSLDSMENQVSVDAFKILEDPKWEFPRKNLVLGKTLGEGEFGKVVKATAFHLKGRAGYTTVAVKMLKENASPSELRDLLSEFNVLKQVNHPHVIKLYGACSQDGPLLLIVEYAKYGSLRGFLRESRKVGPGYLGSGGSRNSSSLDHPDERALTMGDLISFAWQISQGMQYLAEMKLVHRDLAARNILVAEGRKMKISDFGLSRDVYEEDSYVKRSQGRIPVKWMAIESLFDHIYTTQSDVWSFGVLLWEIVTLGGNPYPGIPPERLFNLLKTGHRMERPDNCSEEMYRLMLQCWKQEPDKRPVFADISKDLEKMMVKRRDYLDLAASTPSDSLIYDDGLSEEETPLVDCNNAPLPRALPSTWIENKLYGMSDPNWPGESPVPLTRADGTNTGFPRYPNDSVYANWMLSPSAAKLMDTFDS
# T1 sequence (P15056 2-766 V600E limits assumed): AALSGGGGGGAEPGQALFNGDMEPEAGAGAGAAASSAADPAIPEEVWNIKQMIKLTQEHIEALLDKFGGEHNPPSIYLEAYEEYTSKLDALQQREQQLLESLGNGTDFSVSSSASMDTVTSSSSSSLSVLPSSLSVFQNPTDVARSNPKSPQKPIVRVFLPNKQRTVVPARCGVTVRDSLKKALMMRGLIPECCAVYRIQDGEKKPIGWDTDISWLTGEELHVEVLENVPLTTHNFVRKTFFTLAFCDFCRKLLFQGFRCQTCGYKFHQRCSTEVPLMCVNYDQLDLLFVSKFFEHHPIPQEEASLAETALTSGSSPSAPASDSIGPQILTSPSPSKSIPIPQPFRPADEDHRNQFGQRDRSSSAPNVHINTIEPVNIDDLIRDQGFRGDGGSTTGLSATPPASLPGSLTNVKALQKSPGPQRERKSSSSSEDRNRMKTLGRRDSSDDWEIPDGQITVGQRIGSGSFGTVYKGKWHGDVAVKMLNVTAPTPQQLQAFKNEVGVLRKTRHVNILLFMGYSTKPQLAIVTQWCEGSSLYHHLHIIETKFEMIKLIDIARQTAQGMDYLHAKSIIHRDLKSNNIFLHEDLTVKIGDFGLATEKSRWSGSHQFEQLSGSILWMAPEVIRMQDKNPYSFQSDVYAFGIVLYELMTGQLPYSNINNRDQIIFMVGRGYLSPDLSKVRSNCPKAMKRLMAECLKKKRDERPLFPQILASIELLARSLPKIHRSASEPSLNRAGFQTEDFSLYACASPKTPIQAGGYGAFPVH
Compound,IC50 [1],IC50 [2],EC50 [3],other results
CNC(=O)c1cc(Oc2ccc3oc(Nc4cccc(C(F)(F)F)c4)nc3c2)ccn1,110 nM,27 nM,,
CNC(=O)c1cc(Oc2ccc3oc(Nc4ccccc4F)nc3c2)ccn1,580 nM,200 nM,,
CNC(=O)c1cc(Oc2ccc3oc(Nc4cccc(C(C)C)c4)nc3c2)ccn1,,3 nM,1000 nM,inhibition [8]: Active; inhibition [9]: Active; inhibition [10]: Active; inhibition [11]: Active; inhibition [12]: Active
CNC(=O)c1cc(Oc2ccc3oc(Nc4ccc(N(C)C)cc4)nc3c2)ccn1,130 nM,12 nM,,
CCc1ccccc1Nc1nc2cc(Oc3ccnc(C(=O)NC)c3)ccc2o1,340 nM,110 nM,,
CCN1CCN(c2ccc(Nc3nc4cc(Oc5ccnc(C(=O)NC)c5)ccc4o3)cc2)CC1,17000 nM,7300 nM,,
CNC(=O)c1cc(Oc2ccc3oc(Nc4ccccc4Cl)nc3c2)ccn1,260 nM,120 nM,,
CNC(=O)c1cc(Oc2ccc3c(c2)nc(Nc2cccc(C(C)(C)C)c2)n3C)ccn1,120 nM,,280 nM,
CNC(=O)c1cc(Oc2ccc3oc(Nc4ccc(Oc5ccccc5)cc4)nc3c2)ccn1,680 nM,53 nM,,
O=C(NCCN1CCOCC1)c1cc(Oc2ccc3sc(Nc4ccc(Br)cc4)nc3c2)ccn1,240 nM,41 nM,> 10000 nM,
CC(C)c1cccc(Nc2nc3cc(Oc4ccnc(C(=O)NCCN5CCOCC5)c4)ccc3o2)c1,200 nM,140 nM,,

# Continued by falling IC50 [1], values first:
IC50 [1],IC50 [2],EC50 [3],Compound,other results
65 nM,9 nM,,CCCCc1ccc(Nc2nc3cc(Oc4ccnc(C(=O)NC)c4)ccc3s2)cc1,
26 nM,7 nM,,CNC(=O)c1cc(Oc2ccc3sc(Nc4ccc(C)cc4)nc3c2)ccn1,half-life [4]: 80 min; Vd [5]: 1.042 L/kg; CL/F [6]: 14.1 mL/min/kg; bioavailability [7]: 90%
25 nM,3 nM,10000 nM,CNC(=O)c1cc(Oc2ccc3oc(Nc4ccc(Br)cc4)nc3c2)ccn1,
21 nM,19 nM,,CNC(=O)c1cc(Oc2ccc3oc(Nc4ccc(Cl)cc4)nc3c2)ccn1,
19 nM,3 nM,3200 nM,CNC(=O)c1cc(Oc2ccc3sc(Nc4ccc(C(C)C)cc4)nc3c2)ccn1,
18 nM,4 nM,,CNC(=O)c1cc(Oc2ccc3sc(Nc4ccc(OC(F)(F)F)cc4)nc3c2)ccn1,
15 nM,4 nM,,CNC(=O)c1cc(Oc2ccc3sc(Nc4ccc(Cl)cc4)nc3c2)ccn1,
12 nM,2 nM,,CNC(=O)c1cc(Oc2ccc3oc(Nc4ccc(OC(F)(F)F)cc4)nc3c2)ccn1,
11 nM,2 nM,,CCCCc1ccc(Nc2nc3cc(Oc4ccnc(C(=O)NC)c4)ccc3o2)cc1,
7 nM,2 nM,> 10000 nM,CNC(=O)c1cc(Oc2ccc3sc(Nc4ccc(Br)cc4)nc3c2)ccn1,
6 nM,1 nM,,CNC(=O)c1cc(Oc2ccc3oc(Nc4ccc(C(C)C)cc4)nc3c2)ccn1,
6 nM,1 nM,1000 nM,CNC(=O)c1cc(Oc2ccc3oc(Nc4cccc(C(C)(C)C)c4)nc3c2)ccn1,
5 nM,1 nM,7000 nM,CCc1ccc(Nc2nc3cc(Oc4ccnc(C(=O)NC)c4)ccc3o2)cc1,half-life [4]: 32 min; Vd [5]: 0.082 L/kg; CL/F [6]: 0.93 mL/min/kg; bioavailability [7]: 33%
4 nM,1 nM,2100 nM,CNC(=O)c1cc(Oc2ccc3sc(Nc4cccc(C(C)(C)C)c4)nc3c2)ccn1,inhibition [8]: Active; inhibition [9]: Active; inhibition [10]: Active; inhibition [11]: Active; inhibition [12]: Active
4 nM,4 nM,3700 nM,CC(C)c1cccc(Nc2nc3cc(Oc4ccnc(C(N)=O)c4)ccc3o2)c1,
2 nM,1 nM,2900 nM,CC(C)(C)c1cccc(Nc2nc3cc(Oc4ccnc(C(N)=O)c4)ccc3s2)c1,
